Measurements as given in US6426355B1, “Heterocyclic carboxamide-containing thiourea inhibitors of herpes viruses containing phenylenediamine group” (American Home Products, priority 1998, dated 2002).
≈ marks a conversion by molar mass, not a printed value.

Tests used:
VZV strain Ellen = assay: VZV Antiviral (ELISA) assay; assay type: cell-based; details: for IC50 (ug/ml) VZV: VZV strain Ellen in HFF cells; for inhibition at 10 µg/mL: Human alphaherpesvirus 3, read-out: % inhibition 10 ug/ml VZV, at 10 ug/ml, VZV strain Ellen in HFF cells
Description: For the generation of stock VZV to be used in the assay, VZV strain Ellen (ATCC #VR-1367) is used to infect human foreskin fibroblast (HFF) cells at low multiplicity (less than 0.1) and incubated overnight at 37° C. in 5% CO2. After the overnight incubation, the mixture of uninfected and VZV-infected HFF infected cells are then harvested and added to each well of 96-well plates (3.5×10^4 cells in 100 μl DMEM supplemented with 2% FBS) which contain test compound or the reference standard drug control (in 100 μl DMEM supplemented with 2% FBS per well). These cells are incubated for three days at 37° C. in 5% CO2, then fixed for ELISA assay. The primary antibody is murine anti-VZV glycoprotein II monoclonal antibody (Applied Biosystems, Inc. #13-145-100) and the secondary antibody is goat anti-mouse IgG linked to β-galactosidase. Thus the extent of viral replication is determined by assessing β-galactosidase activity by quantifying the generation of the 4-methyl umbelliferone fluorescent cleavage product after addition of the methyl umbelliferyl-β-D-galactoside (Sigma #M1633) substrate on a microfluorimeter (365 nm for excitation and 450 nm for emission). Antiviral activity (IC50) of the test compound is determined by comparing the flourescence obtained in absence of compound to that obtained in the presence of compound.

[1] = system: HCMV recombinant mutant virus (RV145); assay: HCMV microtiter plate assay (beta-glucuronidase reporter); assay type: cell-based, Human Cytomegalovirus; details: for IC50 (ug/ml) HCMV: HCMV in human foreskin fibroblasts; for IC50: Human betaherpesvirus 5, Fibroblast, read-out: IC50 (ug/ml) HCMV
Description: Ninety-six well plate cultures of human foreskin fibroblasts are infected in the presence of inhibitor compound with a HCMV recombinant mutant virus whose genome contains the prokaryotic beta-glucuronidase gene (Jefferson, R. A., S. M. Burgess, and D. Hirsh. 1986. Beta-glucuronidase from Escherichia coli as a gene fusion marker. Proc. Natl. Acad. Sci. USA 83:8447-8451) whose expression is controlled by a viral promoter. An example of such a virus is RV145 (Jones, T. R., V. P. Muzithras, and Y. Gluzman. 1991. Replacement mutagenesis of the human cytomegalovirus genome: US10 and US11 gene products are nonessential. J. Virol. 65:5860-5872). Since it is under the control of a viral promoter, beta-glucuronidase expression is an indirect indicator of growth and replication of HCMV in this assay. At 96 hours post-infection, the infected cell lysates are prepared (using 50 mM sodium phosphate [pH7.0] containing 0.1% Triton X-100 and 0.1% sarkosyl) and assayed for beta-glucuronidase activity using a substrate for the enzyme which when cleaved yields either a product which can be measured colorimetrically in a spectrophotometer or fluorescently in a microfluorimeter. Examples of such substrates are p-nitrophenyl-beta-D-glucuronide and methylumbelliferylglucuronide, respectively. The presence of an antiviral compound is indicated by the reduced expression of the HCMV genome resident beta-glucuronidase gene, compared to the absence of inhibitor. […] Data from this assay generated using varying amounts of inhibitor compound is also used to estimate the IC50 of an inhibitor compound.

Row | SMILES | IC50 (ug/ml) VZV (VZV strain Ellen) [µg/mL] | IC50 (ug/ml) HCMV [1] [µg/mL] | inhibition at 10 µg/mL (VZV strain Ellen) [%] | IC50 [1] [µg/mL]
1 | CC(NC(=S)Nc1ccc(NC(=O)c2cscn2)cc1)c1ccc(C(F)(F)F)c(F)c1 (stereo not shown) [Example 849] | 1.82 (≈ 3880 nM) | 0.002 (≈ 4.27 nM) |  | 
2 | CC(NC(=S)Nc1ccc(NC(=O)c2cscn2)cc1)c1ccc(Cl)c(C(F)(F)F)c1 (stereo not shown) [Example 850] | 2.33 (≈ 4800 nM) | 0.0008 (≈ 1.65 nM) |  | 
3 | CC(NC(=S)Nc1ccc(NC(=O)c2cscn2)cc1)c1ccc(Cl)cc1F (stereo not shown) [Example 851] | 1.43 (≈ 3290 nM) | 0.017 (≈ 39.1 nM) |  | 
4 | CC(NC(=S)Nc1ccc(NC(=O)c2cscn2)cc1)c1ccc(F)cc1C(F)(F)F (stereo not shown) [Example 852] | >7.5 | 0.005 (≈ 10.7 nM) |  | 
5 | CC(NC(=S)Nc1ccc(NC(=O)c2cscn2)cc1)c1ccc(Cl)c(F)c1 (stereo not shown) [Example 853] | 0.62 (≈ 1430 nM) | 0.004 (≈ 9.2 nM) |  | 
6 | CCC(NC(=S)Nc1ccc(NC(=O)c2csnn2)cc1)c1cc(C(F)(F)F)cc(C(F)(F)F)c1 (stereo not shown) [Example 857] | >7.5 | 0.0006 (≈ 1.12 nM) |  | 
7 | CCCC(NC(=S)Nc1ccc(NC(=O)c2csnn2)cc1)c1cc(C(F)(F)F)cc(C(F)(F)F)c1 (stereo not shown) [Example 858] | >7.5 | 0.0007 (≈ 1.28 nM) |  | 
8 | CCCCC(NC(=S)Nc1ccc(NC(=O)c2csnn2)cc1)c1cc(C(F)(F)F)cc(C(F)(F)F)c1 (stereo not shown) [Example 859] | 0.5 (≈ 890 nM) | 0.00001 (≈ 0.0178 nM) |  | 
9 | O=C(Nc1ccc(NC(=S)NC(c2ccccc2)c2cc(C(F)(F)F)cc(C(F)(F)F)c2)cc1)c1csnn1 (stereo not shown) [Example 860] | >7.5 | 0.001 (≈ 1.72 nM) |  | 
10 | CC(C)(NC(=S)Nc1ccc(NC(=O)c2csnn2)cc1)c1cc(C(F)(F)F)cc(C(F)(F)F)c1 [Example 861] | >7.5 | 0.002 (≈ 3.75 nM) |  | 
11 | O=C(Nc1ccc(NC(=S)NCc2cc(C(F)(F)F)cc(C(F)(F)F)c2)cc1)c1c[nH]cn1 [Example 862] | >7.5 | 0.1 (≈ 205 nM) |  | 
12 | CC(NC(=S)Nc1ccc(NC(=O)c2c[nH]cn2)cc1)c1ccc(F)cc1 (stereo not shown) [Example 863] | >7.5 | 2.0 (≈ 5220 nM) |  | 
13 | Cn1cnc(C(=O)Nc2ccc(NC(=S)NCc3cc(C(F)(F)F)cc(C(F)(F)F)c3)cc2)c1 [Example 864] | >7.5 | 0.5 (≈ 997 nM) |  | 
14 | CCC(NC(=S)Nc1ccc(NC(=O)c2cscn2)cc1)c1cc(C(F)(F)F)cc(C(F)(F)F)c1 (stereo not shown) [Example 865] | >7.5 | 0.0001 (≈ 0.188 nM) |  | 
15 | CC(=O)Nc1ccc(NC(=S)Nc2ccc(C(C)O)c(Cl)c2)cc1 (stereo not shown) [Example 913, N-(4-{3-[3-Chloro-4-(1-hydroxy-ethyl)-phenyl]-thioureido}-phenyl)-acetamide] |  |  | 15 | 0.056 (≈ 154 nM)
16 | CC(=O)Nc1ccc(NC(=S)Nc2ccc(-c3ccno3)c(Cl)c2)cc1 [Example 974, N-{4-[3-(3-Chloro-4-isoxazol-5-yl-phenyl)-thioureido]-phenyl} -acetamide] |  |  | 14 | 0.011 (≈ 28.4 nM)
17 | CC(=O)Nc1ccc(NC(=S)Nc2cc(Cl)cc(Cl)c2)cc1 [Example 983, N-{4-[3-(3,5-Dichloro-phenyl)-thioureido]-phenyl}-acetamide] |  |  | 52 | 0.12 (≈ 339 nM)
